Where only a bound is given, the exact number is not on record here.

Drawing on US9458110B2, “Phenylpyrazole derivatives as potent ROCK1 and ROCK2 inhibitors” (BRISTOL-MYERS SQUIBB COMPANY, priority 2013, dated 2016), this text covers IC50 for 34 molecules.

Assay [1] addresses ROCK2 (Homo sapiens (Human), UniProt O75116). The assay is described as follows: ROCK assay (Caliper LABCHIP peptide phosphorylation), ROCK2.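 Further: reaction stopped with EDTA, then phosphorylated and unphosphorylated peptide resolved by microfluidic electrophoresis, kinase inhibition computed at each compound concentration in dose-response series, DMSO under 2%.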 The note with it: 5 μM ATP, 1.5 μM peptide substrate. The format is biochemical.
For assay [2], the target named is ROCK1 (Homo sapiens (Human), UniProt Q13464). The assay is described as follows: ROCK assay (Caliper LABCHIP peptide phosphorylation), ROCK1.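 Further: Read-out is separation of phosphorylated from unphosphorylated peptide, with kinase activity inhibition computed at every concentration of a dose-response series.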 The format is biochemical. The conditions noted are these: 5 μM ATP, 1.5 μM peptide substrate.
Sequence of ROCK1 (Q13464 whole entry, species assumed): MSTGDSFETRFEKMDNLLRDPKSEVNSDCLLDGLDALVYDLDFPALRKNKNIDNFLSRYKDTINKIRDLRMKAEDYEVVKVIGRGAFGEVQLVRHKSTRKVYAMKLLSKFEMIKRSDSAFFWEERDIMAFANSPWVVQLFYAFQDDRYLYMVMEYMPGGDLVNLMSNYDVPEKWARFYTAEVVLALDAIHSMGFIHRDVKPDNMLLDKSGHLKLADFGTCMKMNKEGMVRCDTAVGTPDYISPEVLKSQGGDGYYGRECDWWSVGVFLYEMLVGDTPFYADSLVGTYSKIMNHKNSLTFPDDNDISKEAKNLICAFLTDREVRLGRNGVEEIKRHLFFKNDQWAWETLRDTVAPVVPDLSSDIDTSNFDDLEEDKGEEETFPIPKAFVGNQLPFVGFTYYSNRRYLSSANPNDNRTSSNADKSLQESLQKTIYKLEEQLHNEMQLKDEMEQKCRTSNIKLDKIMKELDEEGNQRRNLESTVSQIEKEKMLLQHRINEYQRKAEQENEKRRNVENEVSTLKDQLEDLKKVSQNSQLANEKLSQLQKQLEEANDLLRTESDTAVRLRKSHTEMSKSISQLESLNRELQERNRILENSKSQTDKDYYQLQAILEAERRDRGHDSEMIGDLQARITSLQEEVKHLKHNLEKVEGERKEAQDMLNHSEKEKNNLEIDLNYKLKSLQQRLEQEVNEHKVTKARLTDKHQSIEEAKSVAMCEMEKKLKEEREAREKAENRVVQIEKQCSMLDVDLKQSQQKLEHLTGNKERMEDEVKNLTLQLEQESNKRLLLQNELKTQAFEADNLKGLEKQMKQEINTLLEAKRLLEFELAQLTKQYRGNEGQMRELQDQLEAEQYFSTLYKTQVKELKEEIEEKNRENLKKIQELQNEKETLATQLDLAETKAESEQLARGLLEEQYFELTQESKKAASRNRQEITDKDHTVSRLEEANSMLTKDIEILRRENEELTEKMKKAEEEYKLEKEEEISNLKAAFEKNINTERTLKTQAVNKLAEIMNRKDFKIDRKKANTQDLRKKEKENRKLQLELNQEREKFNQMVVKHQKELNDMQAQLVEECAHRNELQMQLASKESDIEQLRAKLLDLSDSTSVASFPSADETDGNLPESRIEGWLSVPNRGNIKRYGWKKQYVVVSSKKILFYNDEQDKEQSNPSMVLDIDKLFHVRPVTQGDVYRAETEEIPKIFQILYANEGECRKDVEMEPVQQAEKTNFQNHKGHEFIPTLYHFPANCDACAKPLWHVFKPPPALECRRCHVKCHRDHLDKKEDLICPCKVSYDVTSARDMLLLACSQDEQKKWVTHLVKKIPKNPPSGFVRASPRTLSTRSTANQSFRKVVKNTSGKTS

Sequence of ROCK2 (O75116 whole entry, species assumed): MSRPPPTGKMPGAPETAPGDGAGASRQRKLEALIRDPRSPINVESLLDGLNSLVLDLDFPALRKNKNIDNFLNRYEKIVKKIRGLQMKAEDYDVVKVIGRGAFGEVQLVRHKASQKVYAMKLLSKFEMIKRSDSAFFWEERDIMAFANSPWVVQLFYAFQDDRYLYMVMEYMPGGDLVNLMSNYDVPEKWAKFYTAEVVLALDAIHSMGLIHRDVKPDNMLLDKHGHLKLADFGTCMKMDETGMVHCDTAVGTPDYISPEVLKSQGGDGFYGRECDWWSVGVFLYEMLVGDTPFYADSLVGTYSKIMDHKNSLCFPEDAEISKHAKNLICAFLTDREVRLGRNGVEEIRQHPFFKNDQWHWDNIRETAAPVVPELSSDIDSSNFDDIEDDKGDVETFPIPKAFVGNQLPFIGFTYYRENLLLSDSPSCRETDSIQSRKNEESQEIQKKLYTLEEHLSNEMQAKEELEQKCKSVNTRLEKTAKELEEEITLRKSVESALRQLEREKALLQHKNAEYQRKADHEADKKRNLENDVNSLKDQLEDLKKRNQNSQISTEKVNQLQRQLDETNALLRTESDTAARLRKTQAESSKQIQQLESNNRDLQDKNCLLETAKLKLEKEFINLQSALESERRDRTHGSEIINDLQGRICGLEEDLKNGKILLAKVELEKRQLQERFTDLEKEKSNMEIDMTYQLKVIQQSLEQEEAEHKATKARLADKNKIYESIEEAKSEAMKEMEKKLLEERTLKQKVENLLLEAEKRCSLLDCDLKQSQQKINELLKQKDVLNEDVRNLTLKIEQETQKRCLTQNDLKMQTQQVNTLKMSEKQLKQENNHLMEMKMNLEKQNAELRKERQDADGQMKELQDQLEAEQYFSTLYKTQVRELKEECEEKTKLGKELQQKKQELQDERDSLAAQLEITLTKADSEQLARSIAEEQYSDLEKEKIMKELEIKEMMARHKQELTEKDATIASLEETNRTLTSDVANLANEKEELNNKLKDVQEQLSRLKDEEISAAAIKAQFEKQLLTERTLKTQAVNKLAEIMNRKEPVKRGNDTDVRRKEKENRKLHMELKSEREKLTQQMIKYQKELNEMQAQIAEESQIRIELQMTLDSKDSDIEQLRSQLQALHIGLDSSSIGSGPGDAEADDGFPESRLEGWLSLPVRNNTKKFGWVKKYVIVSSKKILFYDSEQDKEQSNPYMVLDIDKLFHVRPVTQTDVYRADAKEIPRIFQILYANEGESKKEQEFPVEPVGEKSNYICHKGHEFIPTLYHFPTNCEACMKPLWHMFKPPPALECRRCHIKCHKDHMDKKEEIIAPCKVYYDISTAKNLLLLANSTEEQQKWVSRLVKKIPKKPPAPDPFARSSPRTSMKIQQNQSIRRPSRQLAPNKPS

On to `COc1cc(-c2cn[nH]c2)ccc1C(=O)NCc1c(F)cccc1F` [Example 207, N-[(2,6-difluorophenyl)methyl]-2-methoxy-4-(1H-pyrazol-4-yl)benzamide], for which the IC50 (as a rule, the concentration that gives 50% inhibition) in assay [1] was 4.39 nM; in assay [2] it was 4.25 nM.

`CC(O)c1cc(C(=O)N[C@H](C)c2c(F)cccc2F)ccc1-c1cn[nH]c1` (stereo partly drawn) [Example 292, N-[(1R)-1-(2,6-difluorophenyl)ethyl]-3-(1-hydroxyethyl)-4-(1H-pyrazol-4-yl)benzamide]: the IC50 amounted to 1510 nM in assay [1] and 1140 nM in assay [2].

As to `COc1cccc([C@@H](C)NC(=O)c2ccc(-c3c[nH]nc3C)cc2OCCN(C)C)c1` [Example 311, 2-[2-(dimethylamino)ethoxy]-N-[(1R)-1-(3-methoxyphenyl)ethyl]-4-(3-methyl-1H-pyrazol-4-yl)benzamide], the values for the IC50 in assay [1] and in assay [2] were 34.8 nM and 22.3 nM, respectively.

Turning to `COc1cccc([C@@H](C)NC(=O)c2ccc(-c3cn[nH]c3)cc2OCCO)c1` [Example 315, 2-(2-hydroxyethoxy)-N-[(1R)-1-(3-methoxyphenyl)ethyl]-4-(1H-pyrazol-4-yl)benzamide], the IC50 in assay [1] came out at 2.31 nM; in assay [2], 7.19 nM.

In the case of `COc1cc(C(=O)NC(C)c2cccc3ccccc23)ccc1-c1cn[nH]c1` (stereo in doubt) [Example 172, 3-methoxy-N-[(1R)-1-(naphthalen-1-yl)ethyl]-4-(1H-pyrazol-4-yl)benzamide], the half-maximal inhibitory concentration (IC50) in assay [1] turned out to be 2.32 nM; in assay [2], 6.68 nM.

Consider `Cc1n[nH]cc1-c1cc(OCCN(C)C)c(C(=O)N[C@H](C)c2ccccc2)cc1F` [Example 309, 2-[2-(dimethylamino)ethoxy]-5-fluoro-4-(3-methyl-1H-pyrazol-4-yl)-N-[(1R)-1-phenylethyl]benzamide], for which the IC50 was 771 nM in assay [1] and above 2000 nM in assay [2].

Regarding `COc1cccc([C@@H](C)NC(=O)c2ccc(-c3c[nH]nc3C#N)cc2OC)c1` [Example 303, 4-(3-Cyano-1H-pyrazol-4-yl)-2-methoxy-N-[(1R)-1-(3-methoxyphenyl)ethyl]benzamide], the IC50 is 21 nM in assay [1] and 30.6 nM in assay [2].

On to `COc1cc(C(=O)NCc2ccc(F)c(F)c2)ccc1-c1cn[nH]c1` [Example 79, N-(3,4-difluorobenzyl)-3-methoxy-4-(1H-pyrazol-4-yl)benzamide], for which the results for the IC50 in assay [1] and in assay [2] were 7.96 nM and 22.8 nM, respectively.

Consider `COc1cc(C(=O)NC2(c3ccccc3Cl)CC2)ccc1-c1cn[nH]c1` [Example 2, N-(1-(2-chlorophenyl)cyclopropyl)-3-methoxy-4-(1H-pyrazol-4-yl)benzamide], for which the IC50 in assay [1] was determined as 4.73 nM; in assay [2], 13.9 nM.

In the case of `COc1cccc([C@@H](C)NC(=O)c2ccc(-c3cn[nH]c3)cc2OCCN(C)C)c1` [Example 308, 2-[2-(Dimethylamino)ethoxy]-N-[(1R)-1-(3-methoxyphenyl)ethyl]-4-(1H-pyrazol-4-yl)benzamide], the IC50 in assay [1] worked out at 37.5 nM; in assay [2] it was 284 nM.

As for `COc1cc(C(=O)NCc2ccc3[nH]c(=O)[nH]c3c2)ccc1-c1cn[nH]c1` [Example 102, 3-methoxy-N-[(2-oxo-2,3-dihydro-1H-1,3-benzodiazol-5-yl)methyl]-4-(1H-pyrazol-4-yl)benzamide], the IC50 was 662 nM in assay [1] and 3770 nM in assay [2].

On to `COc1cc(-c2cn[nH]c2)ccc1C(=O)N[C@H](C)c1ccc(F)cc1` [Example 206, N-[(1R)-1-(4-fluorophenyl)ethyl]-2-methoxy-4-(1H-pyrazol-4-yl) benzamide], for which the IC50 in assay [1] stood at 2.77 nM; in assay [2] it was 7 nM.

For the molecule `Cc1cc(C(=O)N[C@H](C)c2ccccc2)ccc1-c1cn[nH]c1` [Example 84, 3-Methyl-N-[(1R)-1-phenylethyl]-4-(1H-pyrazol-4-yl)benzamide], the figures for the IC50 in assay [1] and in assay [2] were 3.51 nM and 11 nM, respectively.

For `COc1cc(C(=O)NC(CO)c2ccccc2F)ccc1-c1cn[nH]c1` (centres unmarked) [Example 167, N-[1-(2-fluorophenyl)-2-hydroxyethyl]-3-methoxy-4-(1H-pyrazol-4-yl)benzamide], the IC50 in assay [1] stood at 16.7 nM; in assay [2] it was 56.5 nM.

In the case of `COc1cc(-c2cn[nH]c2)ccc1C(=O)N[C@H](CO)[C@H](O)c1ccccc1` [Example 215, N-[(1R,2R)-1,3-dihydroxy-1-phenylpropan-2-yl]-2-methoxy-4-(1H-pyrazol-4-yl)benzamide], the IC50 in assay [1] was 23.4 nM; in assay [2], 64.2 nM.

On to `COc1cccc(C2(NC(=O)c3ccc(-c4cn[nH]c4)c(OC)c3)CC2)c1` [Example 116, 3-methoxy-N-[1-(3-methoxyphenyl)cyclopropyl]-4-(1H-pyrazol-4-yl)benzamide], for which the IC50 in assay [1] worked out at 17.9 nM; in assay [2] it was 55.2 nM.

`COc1cc(C(=O)NC[C@H](C)c2ccccc2)ccc1-c1cn[nH]c1` [Example 117, 3-methoxy-N-[(2R)-2-phenylpropyl]-4-(1H-pyrazol-4-yl)benzamide]: the results for the IC50 in assay [1] and in assay [2] were 30.2 nM and 50.5 nM, respectively.

Turning to `COc1cc(C(=O)NC(C)c2ccccc2OC)ccc1-c1cn[nH]c1` (stereo in doubt) [Example 173, 3-methoxy-N-[(1R)-1-(2-methoxyphenyl)ethyl]-4-(1H-pyrazol-4-yl)benzamide], the figures for the 50% inhibitory concentration (IC50) in assay [1] and in assay [2] were 27.2 nM and 72.4 nM, respectively.

For the molecule `COc1cc(C(=O)NCc2cccc(N(C)C(C)=O)c2)ccc1-c1cn[nH]c1` [Example 100, 3-methoxy-N-{[3-(N-methyl-acetamido)phenyl]methyl}-4-(1H-pyrazol-4-yl)benzamide], the IC50 in assay [1] worked out at 299 nM; in assay [2] it was 4080 nM.

In the case of `Cc1cc(C(=O)N[C@H](CO)c2c(F)cccc2F)ccc1-c1cn[nH]c1` [Example 197, N-[(1S)-1-(2,6-difluorophenyl)-2-hydroxyethyl]-3-methyl-4-(1H-pyrazol-4-yl)benzamide], the figures for the half-maximal inhibitory concentration (IC50) in assay [1] and in assay [2] were 17.6 nM and 52.6 nM, respectively.

Turning to `CCNC(=O)c1cccc(CNC(=O)c2ccc(-c3cn[nH]c3)c(OC)c2)c1` [Example 237, N-{[3-(ethylcarbamoyl)phenyl]methyl}-3-methoxy-4-(1H-pyrazol-4-yl)benzamide], the concentration for half-maximal inhibition (IC50) in assay [1] was 0.4 nM; in assay [2], 2.39 nM.

`COc1cc(C(=O)NCc2ccc(F)c(C(=O)O)c2)ccc1-c1cn[nH]c1` [Example 242, 2-fluoro-5-({[3-methoxy-4-(1H-pyrazol-4-yl)phenyl] formamido}methyl) benzoic acid]: the IC50 in assay [1] worked out at 4.41 nM; in assay [2], 39.2 nM.

As to `COc1cc(C(=O)NC(C)c2ccc3c(c2)OCCO3)ccc1-c1cn[nH]c1` (centres unmarked) [Example 101, N-[1-(2,3-dihydro-1,4-benzodioxin-6-yl)ethyl]-3-methoxy-4-(1H-pyrazol-4-yl)benzamide], the IC50 in assay [1] came out at 189 nM; in assay [2] it was 742 nM.

For `COc1cc(C(=O)NCc2cccc(C(=O)N3CCCC3)c2)ccc1-c1cn[nH]c1` [Example 66, 3-methoxy-4-(1H-pyrazol-4-yl)-N-(3-(pyrrolidine-1-carbonyl)benzyl) benzamide], the half-inhibitory concentration (IC50) in assay [1] was 23.5 nM; in assay [2], 64.3 nM.

For the molecule `COc1cccc([C@@H](C)NC(=O)c2ccc(-c3c[nH]nc3C)cc2OC)c1` [Example 305, 4-(3-Methyl-1H-pyrazol-4-yl)-2-methoxy-N-[(1R)-1-(3-methoxyphenyl)ethyl]benzamide], the IC50 in assay [1] amounted to 0.65 nM; in assay [2] it was 2.15 nM.

As to `CC(O)c1cc(C(=O)N[C@H](C)c2c(F)cccc2F)ccc1-c1cn[nH]c1` (stereo partly drawn) [Example 293, N-[(1R)-1-(2,6-difluorophenyl)ethyl]-3-(1-hydroxyethyl)-4-(1H-pyrazol-4-yl)benzamide], the IC50 stood at 16.2 nM in assay [1] and 98.2 nM in assay [2].

As for `CC(=O)c1cc(C(=O)N[C@H](C)c2ccccc2)ccc1-c1cn[nH]c1` [Example 294, (R)-3-Acetyl-N-(1-phenylethyl)-4-(1H-pyrazol-4-yl)benzamide], the IC50 in assay [1] was 613 nM; in assay [2], above 2000 nM.

As to `CCNC(=O)c1cccc(CNC(=O)c2ccc(-c3cn[nH]c3)c(C)c2)c1` [Example 240, N-{[3-(ethylcarbamoyl)phenyl]methyl}-3-methyl-4-(1H-pyrazol-4-yl)benzamide], the figures for the IC50 in assay [1] and in assay [2] were 2.61 nM and 11.8 nM, respectively.

In the case of `COc1cc(-c2cn[nH]c2)ccc1C(=O)N[C@@H](c1ccccc1)[C@H](O)CO` [Example 225, N-[(1S,2S)-2,3-dihydroxy-1-phenylpropyl]-2-methoxy-4-(1H-pyrazol-4-yl)benzamide], the figures for the 50% inhibitory concentration (IC50) in assay [1] and in assay [2] were 1.09 nM and 7.59 nM, respectively.

Consider `COc1cc(C(=O)NCc2cccc(C(=O)Nc3nc4c(s3)CN(C)CC4)c2)ccc1-c1cn[nH]c1` [Example 247, 3-methoxy-N-{[3-({5-methyl-4H, 5H,6H,7H-[1,3]thiazolo [5,4-c]pyridin-2-yl}carbamoyl)phenyl]methyl}-4-(1H-pyrazol-4-yl)benzamide], for which the concentration for half-maximal inhibition (IC50) stood at 0.33 nM in assay [1] and 0.39 nM in assay [2].

Regarding `COc1cc(C(=O)NCc2cccc(C(=O)O)c2)ccc1-c1cn[nH]c1` [Example 64, 3-((3-Methoxy-4-(1H-pyrazol-4-yl)benzamido)methyl)benzoic acid], the results for the IC50 in assay [1] and in assay [2] were 1.2 nM and 7.7 nM, respectively.

As for `COc1cc(-c2cn[nH]c2)ccc1C(=O)NC(CCN(C)C)c1ccccc1` (centres unmarked) [Example 208, N-[3-(dimethylamino)-1-phenylpropyl]-2-methoxy-4-(1H-pyrazol-4-yl)benzamide], the concentration for half-maximal inhibition (IC50) in assay [1] was determined as 15.2 nM; in assay [2], 174 nM.

With `COc1cc(C(=O)NCc2c(F)ccc(C)c2F)ccc1-c1cn[nH]c1` [Example 80, N-(2,6-difluoro-3-methylbenzyl)-3-methoxy-4-(1H-pyrazol-4-yl)benzamide], the IC50 came to 2.97 nM in assay [1] and 13.2 nM in assay [2].

Take `COc1cccc([C@@H](C)NC(=O)c2ccc(-c3cn[nH]c3)cc2S(C)(=O)=O)c1` [Example 61, (R)-N-(1-(3-Methoxyphenyl)ethyl)-2-(methylsulfonyl)-4-(1H-pyrazol-4-yl)benzamide]: the IC50 in assay [1] was 4590 nM; in assay [2] it was above 2000 nM.
